{"source": "patent US20200178572A1", "about": "(priority 2017, published 2020)", "origin": "cited, not measured here", "conditions": "in vivo"}
{"smiles": "CC1=CC[C@H]2C[C@@H]1C2(C)C", "note": "[α-Pinene, (1S,5S)-2,6,6-Trimethylbicyclo[3.1.1]hept-2-ene]", "values": [{"measurement": "human pulmonary uptake", "value": 60, "unit": "%"}]}
